Reference: ChEMBL document CHEMBL1909046, “DrugMatrix in vitro pharmacology data”

Columns and labels:
[1] = molecular target: Tyrosine-protein kinase Lck (Homo sapiens, UniProt P06239); assay: DRUGMATRIX: Protein Tyrosine Kinase, LCK enzyme inhibition (substrate: Poly(Glu:Tyr)); type: cell-based, Insect cells; conditions: insect cells; Not Active = under 50% inhibition at 10 µM
Melanocortin receptor 4 = Melanocortin receptor 4 (Homo sapiens, UniProt P32245); type: cell membranes, Membrane; conditions: hek293; note: in other assays of this panel Not Active means under 50% inhibition at 10 µM
Melanocortin receptor 4, sequence (P32245 whole entry): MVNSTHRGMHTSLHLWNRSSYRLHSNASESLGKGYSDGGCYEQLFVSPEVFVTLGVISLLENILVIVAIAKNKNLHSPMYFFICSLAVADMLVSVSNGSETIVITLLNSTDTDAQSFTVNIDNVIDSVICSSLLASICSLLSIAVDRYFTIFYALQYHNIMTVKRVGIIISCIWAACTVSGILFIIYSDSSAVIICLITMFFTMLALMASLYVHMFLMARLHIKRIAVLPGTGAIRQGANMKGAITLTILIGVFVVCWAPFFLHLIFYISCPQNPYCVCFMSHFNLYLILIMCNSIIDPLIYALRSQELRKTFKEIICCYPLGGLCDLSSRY

[2] = DRUGMATRIX: Calcium Channel Type L, Phenylalkylamine radioligand binding (ligand: [3H] (-)-Desmethoxyverapamil (D-888)); type: cell membranes, Rattus norvegicus, Wistar, Brain, Membrane; conditions: Not Active = under 50% inhibition at 10 µM
[3] = DRUGMATRIX: Interleukin IL-1 radioligand binding (ligand: [125I] interleukin 1beta); type: cell membranes, Membrane; conditions: nih3t3; Not Active = under 50% inhibition at 10 µM
D(4) dopamine receptor = molecular target: T1, D(4) dopamine receptor (Homo sapiens, UniProt P21917); assay: DRUGMATRIX: Dopamine D4.2 radioligand binding (ligand: [3H] Spiperone); type: cell membranes, CHO-K1, Membrane; conditions: Not Active = under 50% inhibition at 10 µM
T1 sequence (P21917 whole entry): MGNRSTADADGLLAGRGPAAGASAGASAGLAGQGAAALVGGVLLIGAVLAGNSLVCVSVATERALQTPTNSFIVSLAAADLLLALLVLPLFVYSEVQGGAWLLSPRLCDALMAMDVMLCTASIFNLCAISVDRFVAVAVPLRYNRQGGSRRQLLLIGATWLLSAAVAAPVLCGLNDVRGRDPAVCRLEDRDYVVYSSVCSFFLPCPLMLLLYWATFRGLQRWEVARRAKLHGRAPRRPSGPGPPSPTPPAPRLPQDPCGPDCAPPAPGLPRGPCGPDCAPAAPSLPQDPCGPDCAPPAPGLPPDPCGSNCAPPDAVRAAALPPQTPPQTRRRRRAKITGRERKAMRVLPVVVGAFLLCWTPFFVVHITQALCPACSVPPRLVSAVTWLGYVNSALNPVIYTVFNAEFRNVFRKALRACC

[4] = molecular target: T2, Alpha-2C adrenergic receptor (Homo sapiens, UniProt P18825); assay: DRUGMATRIX: Adrenergic Alpha-2C radioligand binding (ligand: [3H] MK-912); type: cell membranes, Sf9, Membrane
T2 sequence (P18825 whole entry): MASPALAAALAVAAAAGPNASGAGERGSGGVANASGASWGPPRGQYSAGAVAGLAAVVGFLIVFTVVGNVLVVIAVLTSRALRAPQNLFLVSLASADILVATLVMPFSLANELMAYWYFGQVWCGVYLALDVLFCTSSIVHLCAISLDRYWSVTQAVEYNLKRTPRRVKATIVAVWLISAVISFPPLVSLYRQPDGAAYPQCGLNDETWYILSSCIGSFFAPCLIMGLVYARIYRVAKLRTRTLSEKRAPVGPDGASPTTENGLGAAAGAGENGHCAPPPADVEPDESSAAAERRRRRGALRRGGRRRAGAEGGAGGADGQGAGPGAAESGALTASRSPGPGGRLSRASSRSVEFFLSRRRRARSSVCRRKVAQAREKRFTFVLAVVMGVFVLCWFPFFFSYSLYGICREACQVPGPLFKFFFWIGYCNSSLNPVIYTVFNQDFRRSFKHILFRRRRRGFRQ

Tyrosine-protein kinase Lck, sequence (P06239 whole entry): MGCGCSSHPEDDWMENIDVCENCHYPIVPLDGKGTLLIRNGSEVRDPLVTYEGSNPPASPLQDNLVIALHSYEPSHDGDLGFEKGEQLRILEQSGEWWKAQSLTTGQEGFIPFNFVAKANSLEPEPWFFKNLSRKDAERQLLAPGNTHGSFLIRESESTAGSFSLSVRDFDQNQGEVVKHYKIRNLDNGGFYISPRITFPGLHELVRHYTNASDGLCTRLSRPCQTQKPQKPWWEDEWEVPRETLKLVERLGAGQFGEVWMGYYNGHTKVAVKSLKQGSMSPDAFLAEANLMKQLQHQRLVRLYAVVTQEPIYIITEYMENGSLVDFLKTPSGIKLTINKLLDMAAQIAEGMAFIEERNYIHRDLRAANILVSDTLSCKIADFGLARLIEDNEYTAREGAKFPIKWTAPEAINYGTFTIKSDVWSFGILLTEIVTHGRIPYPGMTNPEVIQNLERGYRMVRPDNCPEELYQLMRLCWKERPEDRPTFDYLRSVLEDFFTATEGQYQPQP

| Compound | IC50 [1] | IC50 (Melanocortin receptor 4) | IC50 ([2]; read-out: IC50) [µM] | Ki ([2]; read-out: Ki) [µM] | IC50 [3] | Ki [3] | IC50 (D(4) dopamine receptor; cho-k1) | IC50 ([4]; sf9) | IC50 [2] | Ki [2] | IC50 ([4]; read-out: IC50) [µM] | Ki ([4]; read-out: Ki) [nM] | IC50 (D(4) dopamine receptor; read-out: IC50) [µM] | Ki (D(4) dopamine receptor; read-out: Ki) [nM] | Ki [1] |
| --- | --- | --- | --- | --- | --- | --- | --- | --- | --- | --- | --- | --- | --- | --- | --- |
| CC#C[C@]1(O)CC[C@H]2[C@@H]3CCC4=CC(=O)CCC4=C3[C@@H](c3ccc(N(C)C)cc3)C[C@@]21C [MIFEPRISTONE] | Not Active | Not Active | 16 | 15.6 | Not Active | Not Active | Not Active | Not Active |  |  |  |  |  |  |  |
| CC[C@@]1(O)C(=O)OCc2c1cc1n(c2=O)Cc2cc3c(CN(C)C)c(O)ccc3nc2-1 [TOPOTECAN] | Not Active | Not Active |  |  | Not Active | Not Active | Not Active | Not Active | Not Active | Not Active |  |  |  |  |  |
| Nc1nc(N)c2nc(-c3ccccc3)c(N)nc2n1 | Not Active | Not Active |  |  | Not Active | Not Active | Not Active | Not Active | Not Active | Not Active |  |  |  |  |  |
| Cc1cc2c(s1)Nc1ccccc1N=C2N1CCN(C)CC1 [OLANZAPINE] | Not Active | Not Active |  |  |  |  | Not Active |  |  |  |  |  |  |  |  |
| CC[C@H](C)[C@@H](CO[C@@H](Cc1ccccc1)C(=O)N[C@@H](CCS(C)(=O)=O)C(=O)OC(C)C)NC[C@@H](N)CS | Not Active | Not Active |  |  | Not Active | Not Active | Not Active |  | Not Active | Not Active | 3.14 | 456 |  |  |  |
| CO[C@@]12[C@H](COC(N)=O)C3=C(C(=O)C(C)=C(N)C3=O)N1C[C@@H]1N[C@@H]12 [MITOMYCIN] | Not Active | Not Active |  |  | Not Active | Not Active | Not Active | Not Active | Not Active | Not Active |  |  |  |  |  |
| CCOC(=O)C1=C(C)NC(C)=C(C(=O)OCC)C1c1ccccc1/C=C/C(=O)OC(C)(C)C [LACIDIPINE] | Not Active | Not Active |  |  | Not Active | Not Active | Not Active | Not Active | Not Active | Not Active |  |  |  |  |  |
| Cc1cn([C@H]2C=C[C@@H](CO)O2)c(=O)[nH]c1=O [STAVUDINE] | Not Active | Not Active |  |  | Not Active | Not Active | Not Active | Not Active | Not Active | Not Active |  |  |  |  |  |
| C#C[C@]1(O)CC[C@H]2[C@@H]3[C@H](C)CC4=C(CCC(=O)C4)[C@H]3CC[C@@]21C [TIBOLONE] | Not Active | Not Active |  |  | Not Active | Not Active | Not Active | Not Active | Not Active | Not Active |  |  |  |  |  |
| CC(O)C(=O)O (configuration not stated) [LACTIC ACID] | Not Active | Not Active |  |  | Not Active | Not Active | Not Active | Not Active | Not Active | Not Active |  |  |  |  |  |
| O=C(O)c1cc(/N=N/c2ccc(S(=O)(=O)Nc3ccccn3)cc2)ccc1O [SULFASALAZINE] | Not Active | Not Active |  |  | Not Active | Not Active | Not Active | Not Active | Not Active | Not Active |  |  |  |  |  |
| CCN(CC)C(=S)SSC(=S)N(CC)CC | Not Active | Not Active |  |  | Not Active | Not Active |  | Not Active | Not Active | Not Active |  |  | 3.15 | 1100 |  |
| CNCCCC12CCC(c3ccccc31)c1ccccc12 [MAPROTILINE] | Not Active | Not Active |  |  |  |  | Not Active |  |  |  |  |  |  |  |  |
| Cc1ccc(Cl)c(Nc2ccccc2C(=O)O)c1Cl [MECLOFENAMIC ACID] | Not Active | Not Active |  |  | Not Active | Not Active | Not Active | Not Active | Not Active | Not Active |  |  |  |  |  |
| CC(C)(C)NC[C@H](O)COc1cccc2c1CCCC2=O [LEVOBUNOLOL] | Not Active | Not Active |  |  | Not Active | Not Active | Not Active | Not Active | Not Active | Not Active |  |  |  |  |  |
| Cc1cccc(C)c1NC(=O)C(C)N (configuration not stated) [TOCAINIDE] | Not Active | Not Active |  |  | Not Active | Not Active | Not Active | Not Active | Not Active | Not Active |  |  |  |  |  |
| CCOc1cc(N)c(Cl)cc1C(=O)NCC1CN(Cc2ccc(F)cc2)CCO1 (configuration not stated) [MOSAPRIDE] | Not Active | Not Active |  |  | Not Active | Not Active | Not Active | Not Active | Not Active | Not Active |  |  |  |  |  |
| Cc1cnc(NC(=O)C2=C(O)c3ccccc3S(=O)(=O)N2C)s1 [MELOXICAM] | Not Active | Not Active |  |  | Not Active | Not Active | Not Active | Not Active | Not Active | Not Active |  |  |  |  |  |
| O=C1CC[C@@]2(O)[C@H]3Cc4ccc(O)c5c4[C@@]2(CCN3CC2CC2)[C@H]1O5 [NALTREXONE] | Not Active | Not Active |  |  | Not Active | Not Active | Not Active | Not Active | Not Active | Not Active |  |  |  |  |  |
| O=C(c1ccccc1)c1ccc2n1CCC2C(=O)O (configuration not stated) [KETOROLAC] | Not Active | Not Active |  |  | Not Active | Not Active | Not Active | Not Active | Not Active | Not Active |  |  |  |  |  |
| Oc1ccc(/C=C/c2cc(O)cc(O)c2)cc1 [RESVERATROL] | Not Active | Not Active |  |  | Not Active | Not Active | Not Active | Not Active | Not Active | Not Active |  |  |  |  |  |
| CN1C(=O)OC(C)(C)C1=O [TRIMETHADIONE] | Not Active | Not Active |  |  | Not Active | Not Active | Not Active | Not Active | Not Active | Not Active |  |  |  |  |  |
| Cc1[nH]c(=O)c(C#N)cc1-c1ccncc1 [MILRINONE] | Not Active | Not Active |  |  | Not Active | Not Active | Not Active | Not Active | Not Active | Not Active |  |  |  |  |  |
| C[C@]12CCC(=O)C[C@@H]1CC[C@@H]1[C@@H]2CC[C@]2(C)[C@@H](O)CC[C@@H]12 [STANOLONE] | Not Active | Not Active |  |  | Not Active | Not Active | Not Active | Not Active | Not Active | Not Active |  |  |  |  |  |
| CCN(CC)CCNC(=O)c1cc(Cl)c(N)cc1OC [METOCLOPRAMIDE] | Not Active | Not Active |  |  | Not Active | Not Active | Not Active | Not Active | Not Active | Not Active |  |  |  |  |  |
| CN(C)CCC=C1c2ccccc2COc2ccccc21 [DOXEPIN] |  | Not Active |  |  |  |  | Not Active |  |  |  |  |  |  |  | Not Active |
| COC(=O)Nc1nc2ccc(C(=O)c3ccccc3)cc2[nH]1 [MEBENDAZOLE] | Not Active | Not Active |  |  | Not Active | Not Active | Not Active | Not Active | Not Active | Not Active |  |  |  |  |  |
| O=[As][O-].[Na+] [SODIUM ARSENITE] | Not Active | Not Active |  |  | Not Active | Not Active | Not Active | Not Active | Not Active | Not Active |  |  |  |  |  |
| CS(=O)(=O)c1ccc(C2=C(c3ccccc3)C(=O)OC2)cc1 [ROFECOXIB] | Not Active | Not Active |  |  | Not Active | Not Active | Not Active | Not Active | Not Active | Not Active |  |  |  |  |  |
| CC1(C)[C@H](C(=O)O)N2C(=O)C[C@H]2S1(=O)=O [SULBACTAM] | Not Active | Not Active |  |  | Not Active | Not Active | Not Active | Not Active | Not Active | Not Active |  |  |  |  |  |
